In brackets after ≈: the same amount, converted by molar mass. Entries after “also recorded” stand apart in the source; their conditions may differ.
How the values were obtained:
[1] = LogP, partition coefficient in 1-octanol; assay type: physicochemical; settings: 1-octanol partition
[2] = Solubility in water; assay type: physicochemical; settings: aqueous buffer; Water pH 7.2 at 37° C.
[3] = test system: Caspase-1; assay: iGLuc luminescence assay of ATP-induced Caspase-1 activation in J774 iGLuc cells; assay type: cell-based, mouse; settings: for Caspase-1 cleavage (luminescence): ATP 5 mM, N=3
Protocol: Caspase-1 is the enzyme at the core of the inflammasome complex and is an important danger response signal and mediator of RPE cell death in AMD. […] Importantly, there was some difference between individual compounds in terms of the dose response curve, emphasizing the need to test each compound (with unique R group(s)) individually.
To obtain the data set forth in FIGS. 64-73, an iGLuc assay was conducted (modified from Bartok et al. iGLuc: a luciferase-based inflammasome and protease activity reporter. Nature Methods 2013; 10(2):147-54). Briefly, 100,000 iGLuc cells per well were plated in a 96 well plate overnight. The next morning, media is aspirated from the plate and replaced with 75 μL of serum free DMEM with drugs (NRTIs or modified NRTIs) for 30 min. After 30 minutes of drug exposure, 20 mM ATP (25 μL) is added for a final concentration of 5 mM. 50 μL of media from each well is collected and 50 μL of coelenterazine 4.4 μM is added to each sample, and luminescence is read immediately.

[4] = test system: Caspase-1; assay: Alu RNA-induced Caspase-1 activation, western blot, primary human RPE cells; assay type: cell-based; settings: for Alu RNA-induced Caspase-1 activation/cleavage: concentration not given
From the text: The bottom row in FIG. 5 is a vinculin loading control.

[5] = test system: Caspase-1; assay: Iron (III) ammonium citrate-induced Caspase-1 activation, western blot, primary human RPE cells; assay type: cell-based; settings: 25 μM, Fe(III) ammonium citrate (100 μM)
From the text: Caspase-1 activation (p20 subunit) in primary human retinal pigment epithelium (RPE) cells in the presence of iron (III) ammonium citrate was studied.
Caspase-1 activation (p10 subunit) in primary human RPE cells in the presence of iron (III) ammonium citrate was studied.
Alu RNA is a toxic endogenous retroelement that accumulates in and causes death of the RPE in patients with dry AMD. […] FAC activates Caspase-1 via an Alu RNA intermediate, and induces NLRP3-dependent RPE degeneration (Gelfand et al. Cell Reports 2015). Fe(III) ammonium citrate (100 μM)-induced Caspase-1 activation in primary human RPE cells, monitored by western blotting, is reduced by TM-3TC (25 μM), d4T-ene (25 μM), 2Me-d4T (25 μM), Me-AZT (25-100 μM), and 2Me-AZT (25 μM). N=3-4.

[6] = test system: GFP-expressing lentivirus; assay: GFP-expressing lentivirus transduction/replication assay in HeLa cells; assay type: cell-based; settings: for lentivirus replication (GFP-positive cells per field): 10 μM, 72 hours, MOI 20
Protocol: All drugs were added at a concentration of 10 μM. Cells were imaged for GFP expression 72 hours after addition of lentivirus. GFP-positive cells per field of view were recorded. n=4-11, error bars S.E.M. Reverse transcription of lentivirus is essential for GFP expression; modified NRTIs should not block reverse transcriptase, whereas NRTIs are known to block reverse transcriptase.
The present disclosure further provides the results of additional experiments in FIG. 21-FIG. 23.

[7] = test system: human LINE-1 retrotransposon; assay: EGFP cell culture L1 retrotransposition assay in HeLa cells; assay type: cell-based; settings: 7 days after transfection, flow cytometry
Protocol: These findings pave way for the rational re-design and improvement of nucleoside analogs as novel therapeutics. The enhanced green fluorescent protein (EGFP) cell culture L1 retrotransposition assay was performed in HeLa cells. […] Transfected cells were selected in puromycin. 7 days after transfection, cells that underwent retrotransposition (EGFP-positive) were assayed by flow cytometry. Cells were gated based on background fluorescence of plasmid JM111, which has two point mutations in L1-ORF1 that abolish retrotransposition. Data are normalized with RPS set to 1.

[8] = test system: wild-type mice; assay: pAlu-induced RPE degeneration, mouse model of dry AMD; assay type: in vivo
Protocol: Mouse studies were conducted to study treatment with NRTIs or derivatives.

[9] = test system: JR5558 mice; assay: Spontaneous CNV in JR5558 mice, fluorescein angiography dye leakage; assay type: in vivo, mouse
From the text: JR5558 mice develop spontaneous choroidal neovascularization (CNV) and are an animal model of wet/neovascular age-related macular degeneration (AMD). The activity of the CNV lesions can be monitored using fluorescein angiography to assess the degree of dye leakage from the lesions, as is done in humans with this disease. FIGS. 81 and 82 are representative images from two JR5558 mice (N=8). The first and third row of FIGS. 81 and 82 show time dependent dye leakage from pre-existing CNV lesions in the left eye (first row) and right eye (third row) of a first and second JR5558 mouse, respectively.

[10] = test system: wild-type mice; assay: Alu RNA-induced RPE degeneration, mouse model of dry AMD
[11] = test system: mtDNA; assay: Relative quantity of mtDNA, quantitative PCR, primary human RPE cells; settings: 50 μM; four days; relative to DMSO
[12] = test system: wild-type mice; assay: Poly IC-induced RPE degeneration in mice; assay type: in vivo, mouse; settings: intravitreous; measured 7 days after poly IC
[13] = test system: mice; assay: Amyloid beta-induced RPE degeneration in mice; assay type: in vivo, mouse; settings: intraperitoneal 25 mg/kg days 1 to 6; read day 7
[14] = test system: mice; assay: Iron-induced RPE degeneration in mice; assay type: in vivo, mouse; settings: intraperitoneal 25 mg/kg days 1 to 6; read day 7
[15] = test system: IL-1 beta; assay: LPS/ATP-induced IL-1 beta activation in Raji TK− and TK+ cells, western blot; assay type: cell-based
From the text: (§1) To determine whether LPS/ATP-induced inflammasome activation can be inhibited without RT inhibition, the present inventors utilized thymidine kinase-deficient (Raji/TK^−) and -expressing (Raji/TK^+) cells (Balzarini et al., 1989).

[16] = test system: Raji TK^+ and Raji TK^− cells; assay: Phosphorylation of AZT to AZT-triphosphate in Raji TK+ / TK− cells, LC-MS; assay type: in vitro ADME
From the text: as §1
FIG. 50 is a standard curve of AZT-TP standards (black circle). […] FIG. 50 is representative of two experiments.

[17] = test system: wild-type mice; assay: Laser-induced choroidal neovascularization (CNV; wet AMD) in wild-type mice; settings: N=16
[18] = target: T1, human P2X7 receptor (Homo sapiens, UniProt Q99572); settings: HEK293 stably expressing human P2X7; concentration not given
T1 sequence (Q99572 1-595): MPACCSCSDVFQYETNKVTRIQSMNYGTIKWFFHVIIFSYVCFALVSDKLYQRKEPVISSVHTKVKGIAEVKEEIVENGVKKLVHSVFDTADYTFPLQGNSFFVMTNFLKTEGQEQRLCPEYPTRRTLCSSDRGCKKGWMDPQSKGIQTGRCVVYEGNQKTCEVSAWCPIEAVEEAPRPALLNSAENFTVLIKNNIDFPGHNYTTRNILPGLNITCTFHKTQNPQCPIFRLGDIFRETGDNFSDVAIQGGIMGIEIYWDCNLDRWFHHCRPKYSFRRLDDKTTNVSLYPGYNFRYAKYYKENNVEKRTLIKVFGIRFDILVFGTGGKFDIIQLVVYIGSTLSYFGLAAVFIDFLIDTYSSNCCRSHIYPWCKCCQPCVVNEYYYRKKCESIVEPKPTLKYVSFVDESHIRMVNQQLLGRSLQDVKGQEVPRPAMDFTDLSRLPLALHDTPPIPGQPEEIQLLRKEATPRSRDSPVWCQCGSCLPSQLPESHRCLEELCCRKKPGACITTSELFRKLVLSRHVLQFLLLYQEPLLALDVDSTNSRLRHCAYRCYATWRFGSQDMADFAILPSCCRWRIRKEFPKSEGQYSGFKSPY

[19] = intraperitoneal 25 mg/kg twice daily

SMILES | logP [1] | solubility [2] [mg/mL] | Caspase-1 cleavage (luminescence) ([3]; drug 1 nM-100 μM) | lentivirus replication (GFP-positive cells per field) [6] | L1 retrotransposition (EGFP-positive cells) [7] | pAlu-induced RPE degeneration [8, 19] | relative quantity of mtDNA (mtDNA depletion) [11] | poly IC-induced RPE degeneration [12] | Iron-induced RPE degeneration [14] | Alu RNA-induced Caspase-1 activation/cleavage [4] | further results
COC[C@@H]1O[C@H](n2ccc(N(C)C)nc2=O)CS1 [Kamuvudine 3Me-3TC, 4-(dimethylamino)-1-[(2R,5S)-2-(methoxymethyl)-1,3-oxathiolan-5-yl]-1,2-dihydropyrimidin-2-one] | 0.09 | 7 (≈ 25.8 mM) | reduces Caspase-1 cleavage in a dose-dependent fashion | do not block lentivirus replication | no effect on L1 activity | protects against RPE degeneration | do not reduce mtDNA | – | – | – | Alu RNA induced Caspase-1 activation ([4]; 25-100 μM (25 and 100 μM), listed as TM-3TC): blocked Alu-induced Caspase-1 activation; also recorded: reduced; iron-induced Caspase-1 activation ([5]; listed as TM-3TC): blocked iron-induced Caspase-1 activation; also recorded: reduced; CNV lesion leakage compared to 3TC ([9]; 62.5 ng vs 125 ng 3TC): greater reduction in CNV lesion leakage; activity (dye leakage) of pre-existing CNV lesions ([9]; single intravitreous 62.5 ng, 3 days after administration): suppress the activity of pre-existing CNV lesions; Alu RNA-induced RPE degeneration ([10]; intraperitoneal 25 mg/kg, twice daily for 6 days): protects against RPE degeneration
COCC1C=C[C@H](n2cc(C)c(=O)n(C)c2=O)O1 (stereo partly drawn) [Kamuvudine 2Me-d4T, 1-[(2R)-5-(methoxymethyl)-2,5-dihydrofuran-2-yl]-3,5-dimethyl-1,2,3,4-tetrahydropyrimidine-2,4-dione] | 0.63 | 10 (≈ 39.6 mM) | – | do not block lentivirus replication | no effect on L1 activity | restored to healthy RPE morphology/intercellular junctions | do not exhibit mtDNA depletion | blocks this degeneration | blocked the development of RPE degeneration | – | iron-induced Caspase-1 activation [5]: reduced; iron-induced Caspase-1 activation ([5]; listed as 2me-d4T): blocked iron-induced Caspase-1 activation; Amyloid beta-induced RPE degeneration [13]: blocked the development of RPE degeneration
Cc1cn([C@H]2C[C@H](N=[N+]=[N-])[C@@H](CO)O2)c(=O)[nH]c1=O [AZT, 3′-azido-2′,3′-dideoxythymidine, reference compound] | -0.41 | – | reduces Caspase-1 cleavage in a dose-dependent fashion | blocked lentivirus GFP expression | blocked L1 retrotransposition | – | – | – | – | block Caspase-1 cleavage | Alu RNA-induced Caspase-1 maturation ([4]; 50-100 uM, 24 hours after Alu administration): blocked; IL-1 beta activation by LPS/ATP ([15]; Raji TK+ cells): blocks IL-1 beta activation; IL-1 beta activation by LPS/ATP ([15]; Raji TK− cells): blocks IL-1 beta activation; formation of AZT-triphosphate (AZT-TP) ([16]; Raji TK+ cells): produced AZT-TP; formation of AZT-triphosphate (AZT-TP) ([16]; Raji TK− cells): not detectable; pAlu-induced RPE degeneration ([8]; intraperitoneal administration, dose not stated): blocked RPE degeneration; laser injury-induced CNV volume ([17]; intravitreous 0.55 nmol): reduced laser injury-induced CNV volume; P2X7-dependent YO-PRO-1 uptake induced by bzATP [18]: inhibited P2X7-dependent uptake
COC[C@@H]1C=C[C@H](n2cc(C)c(=O)[nH]c2=O)O1 [Me-d4T, 1-[(2R,5S)-5-(methoxymethyl)-2,5-dihydrofuran-2-yl]-5-methyl-1,2,3,4-tetrahydropyrimidine-2,4-dione] | 0.41 | 30 (≈ 126 mM) | – | do not block lentivirus replication | no effect on L1 activity | – | do not exhibit mtDNA depletion | blocks this degeneration | blocked the development of RPE degeneration | blocks Caspase-1 activation | Caspase-1 cleavage (luminescence) ([3]; drug 100 μM): reduces Caspase-1 cleavage in a dose-dependent fashion; reduction of inflammasome activation ([3]; ATP (5 mM), mouse J774 iGLuc cells, FIGS. 70-73): about 70%; replication of GFP-expressing lentivirus ([6]; FIG. 22, concentration not given): does not block lentivirus replication; Alu-induced RPE degeneration ([10]; intraperitoneal injection, dose not stated): prevents Alu-induced RPE degeneration; choroidal neovascularization (CNV) volume ([17]; intravitreous 0.14 nmol, day 7): reduced choroidal neovascularization (CNV) volume

Source: patent US11219623B2, “Inflammasome inhibition for the treatment of Parkinson's disease, Alzheimer's disease and multiple sclerosis” (University of Kentucky Research Foundation, priority 2015, dated 2022)
